Measured values from patent US10633417B2 (priority 2013, dated 2020).

Tested on: Sprague-Dawley rats
Conditions: rat, in vivo

Compound: CC(C)C[C@H](CN)CC(=O)O [Pregabalin, pregabalin]
- activity on mechanical allodynia (von Frey), days 14 and 21: active

Compound: GCCSDPRCRYRCR [RgIA]
- OXA-induced pain threshold decrease (von Frey), day 7, 30 min: reverted
